ChEMBL document CHEMBL4765241, “Identification and Preclinical Pharmacology of ((1 R,3 S)-1-Amino-3-(( S)-6-(2-methoxyphenethyl)-5,6,7,8-tetrahydronaphthalen-2-yl)cyclopentyl)methanol (BMS-986166): A Differentiated Sphingosine-1-phosphate Receptor 1 (S1P) Modulator Advanced into Clinical Trials” (J Med Chem, 2019)
Calls of active or inactive are those of the source. The calls are words filed in the database; no cut-off is given here.

How the values were obtained:
Mus musculus [1] = assay: Reduction in circulating lymphocytes in Balb/c mouse blood at 1 mg/kg, po measured at 4 hrs by hematology analyzer based analysis; format: functional; set-up: scale not given: the % may be the effect or the level left
Mus musculus [2] = assay: Reduction in circulating lymphocytes in Balb/c mouse blood at 15 mg/kg, po measured at 4 hrs by hematology analyzer based analysis; format: functional; set-up: scale not given: the % may be the effect or the level left
Mus musculus [3] = assay: Reduction in circulating lymphocytes in Balb/c mouse blood at 1 mg/kg, po measured at 24 hrs by hematology analyzer based analysis; format: functional; set-up: scale not given: the % may be the effect or the level left
Mus musculus [4] = assay: Reduction in circulating lymphocytes in Balb/c mouse blood at 15 mg/kg, po measured at 24 hrs by hematology analyzer based analysis; format: functional; set-up: scale not given: the % may be the effect or the level left
[5] = Drug metabolism in Balb/c mouse blood assessed as concentration of parent compound at 1 mg/kg, po measured at 4 hrs by LC-MS/MS analysis; format: ADME, organism-based; conditions: Balb/c, blood, read-out: Ct
[6] = Drug metabolism in Balb/c mouse blood assessed as concentration of parent compound at 15 mg/kg, po measured at 4 hrs by LC-MS/MS analysis; format: ADME, organism-based; conditions: read-out: Ct
[7] = Drug metabolism in Balb/c mouse blood assessed as concentration of phosphate ester metabolite formation at 1 mg/kg, po measured at 4 hrs by LC-MS/MS analysis; format: ADME, organism-based; conditions: in vivo, BLD = below limit of detection
[8] = Drug metabolism in Balb/c mouse blood assessed as concentration of phosphate ester metabolite formation at 15 mg/kg, po measured at 4 hrs by LC-MS/MS analysis; format: ADME, organism-based; conditions: in vivo
[9] = Drug metabolism in Balb/c mouse blood assessed as concentration of parent compound at 1 mg/kg, po measured at 24 hrs by LC-MS/MS analysis; format: ADME, organism-based; conditions: Balb/c, blood, read-out: Ct
[10] = Drug metabolism in Balb/c mouse blood assessed as concentration of parent compound at 15 mg/kg, po measured at 24 hrs by LC-MS/MS analysis; format: ADME, organism-based; conditions: read-out: Ct
[11] = Drug metabolism in Balb/c mouse blood assessed as concentration of phosphate ester metabolite formation at 1 mg/kg, po measured at 24 hrs by LC-MS/MS analysis; format: ADME, organism-based; conditions: in vivo
[12] = Drug metabolism in Balb/c mouse blood assessed as concentration of phosphate ester metabolite formation at 15 mg/kg, po measured at 24 hrs by LC-MS/MS analysis; format: ADME, organism-based; conditions: in vivo
[13] = Ratio of drug metabolism in Balb/c mouse blood assessed as phosphate ester metabolite to parent drug at 1 mg/kg, po measured at 24 hrs by LC-MS/MS analysis; format: ADME, organism-based; conditions: in vivo
[14] = Ratio of drug metabolism in Balb/c mouse blood assessed as phosphate ester metabolite to parent drug at 15 mg/kg, po measured at 24 hrs by LC-MS/MS analysis; format: ADME, organism-based; conditions: in vivo
Rattus norvegicus [15] = assay: Reduction in circulating lymphocytes in Lewis rat blood at 2 mg/kg, po measured at 4 hrs by hematology analyzer based analysis; format: functional; set-up: scale not given: the % may be the effect or the level left
[16] = Drug metabolism in Lewis rat blood assessed as concentration of parent compound at 2 mg/kg, po measured at 4 hrs by LC-MS/MS analysis; format: ADME, organism-based; conditions: read-out: Ct
Rattus norvegicus [17] = assay: Reduction in circulating lymphocytes in Lewis rat blood at 2 mg/kg, po measured at 24 hrs by hematology analyzer based analysis; format: functional; set-up: scale not given: the % may be the effect or the level left
[18] = Drug metabolism in Lewis rat blood assessed as concentration of parent compound at 2 mg/kg, po measured at 24 hrs by LC-MS/MS analysis; format: ADME, organism-based; conditions: read-out: Ct
[19] = Half-life in Lewis rat at 2 mg/kg, po measured over 72 hrs by LC-MS/MS analysis; format: ADME, organism-based; conditions: in vivo
[20] = Ratio of drug metabolism in Lewis rat blood assessed as phosphate ester metabolite to parent drug at 2 mg/kg, po measured at 24 hrs by LC-MS/MS analysis; format: ADME, organism-based; conditions: in vivo
Rattus norvegicus [21] = assay: Drug metabolism in Lewis rat blood assessed as concentration of phosphate ester metabolite formation at 2 mg/kg, po measured at 4 hrs by LC-MS/MS analysis; conditions: in vivo
[22] = Cardiotoxicity in human iPSC derived cardiomyocytes assessed as reduction in beating rate at 1 nM measured over 2 hrs by multi-electrode array relative to control; format: toxicity, cell-based; set-up: scale not given: the % may be the effect or the level left; conditions: stem cell-derived cardiomyocyte, 0.001 µM
[23] = Cardiotoxicity in human iPSC derived cardiomyocytes assessed as reduction in beating rate at 10 nM measured over 2 hrs by multi-electrode array relative to control; format: toxicity, cell-based; set-up: scale not given: the % may be the effect or the level left; conditions: stem cell-derived cardiomyocyte, 0.01 µM
[24] = molecular target: T1, Sphingosine 1-phosphate receptor 4 (Homo sapiens, UniProt O95977); assay: Agonist activity at human recombinant S1P4 expressed in CHO cell membranes assessed as stimulation of [35S]-GTPgammaS binding measured after 45 mins by liquid scintillation counting assay; format: functional, Cell membrane
T1 sequence (O95977 whole entry): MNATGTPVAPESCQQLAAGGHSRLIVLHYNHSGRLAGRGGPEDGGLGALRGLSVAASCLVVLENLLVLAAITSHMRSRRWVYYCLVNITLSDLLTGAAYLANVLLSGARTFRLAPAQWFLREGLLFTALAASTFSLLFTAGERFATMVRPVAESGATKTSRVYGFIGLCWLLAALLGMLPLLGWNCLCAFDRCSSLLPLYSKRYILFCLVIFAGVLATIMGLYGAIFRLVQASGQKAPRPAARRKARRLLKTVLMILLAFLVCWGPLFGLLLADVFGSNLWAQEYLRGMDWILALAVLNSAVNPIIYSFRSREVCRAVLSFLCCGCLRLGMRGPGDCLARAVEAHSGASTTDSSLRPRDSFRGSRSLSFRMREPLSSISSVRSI

Cerebellar cortex [25] = assay: Induction of remyelination in lysophosphatidylcholine-induced demyelination in wild-type CD1 mouse organotypic cerebellar slice at 0.01 to 10 nM incubated for 7 days by immunohistochemistry based three-dimensional brain cell culture assay; format: functional, tissue-based; conditions: dose 0.01-10 nM, time 7.0 day
Cerebellar cortex [26] = assay: Induction of remyelination in lysophosphatidylcholine-induced demyelination in wild-type CD1 mouse organotypic cerebellar slice assessed as myelination index at 0.01 to 10 nM incubated for 7 days by immunohistochemistry based three-dimensional brain cell culture assay (reference value: 50%); format: functional; conditions: dose 0.01-10 nM, time 7 day
[27] = Pulmonary toxicity in Lewis rat assessed as elevation of BAL protein level at 25 mg/kg by advia1800 chemistry analyzer; format: organism-based; conditions: in vivo
Rattus norvegicus [28] = assay: Reduction in circulating lymphocytes in Lewis rat blood assessed as effective dose after oral dosing measured at 24 hrs by hematology analyzer based analysis; format: functional
[29] = Pulmonary toxicity in Lewis rat assessed as elevation of BAL protein level at 3 mg/kg by advia1800 chemistry analyzer; format: organism-based; conditions: in vivo
[30] = AUC ratio in orally dosed Sprague-Dawley rat blood assessed as phosphate metabolite to parent compound; format: ADME, organism-based; conditions: in vivo, po
[31] = AUC ratio in orally dosed Beagle dog blood assessed as phosphate metabolite to parent compound; format: ADME, organism-based, Canis lupus familiaris; conditions: in vivo, po
[32] = AUC ratio in orally dosed cynomolgus monkey blood assessed as phosphate metabolite to parent compound; format: ADME, organism-based, Macaca fascicularis; conditions: in vivo, po
[33] = AUC ratio in orally dosed human blood assessed as phosphate metabolite to parent compound; format: ADME, organism-based; conditions: po
Mus musculus [34] = assay: Immunosuppressive activity in MOG (35 to 55 residues)/pertussis toxin-induced experimental autoimmune encephalomyelitis C57BL/6 mouse model assessed as reduction in formation of inflammatory lesions in CNS at 1 mg/kg, po QD starting from day 1 post immunization and measured thrice weekly until day 24; format: functional, organism-based
[35] = molecular target: Sphingosine 1-phosphate receptor 3 (Homo sapiens, UniProt Q99500); assay: Agonist activity at human recombinant S1P3 expressed in CHO cell membranes assessed as stimulation of [35S]-GTPgammaS binding measured after 45 mins by liquid scintillation counting assay; set-up: species or system Cell membrane
Sphingosine 1-phosphate receptor 3, sequence (Q99500 whole entry): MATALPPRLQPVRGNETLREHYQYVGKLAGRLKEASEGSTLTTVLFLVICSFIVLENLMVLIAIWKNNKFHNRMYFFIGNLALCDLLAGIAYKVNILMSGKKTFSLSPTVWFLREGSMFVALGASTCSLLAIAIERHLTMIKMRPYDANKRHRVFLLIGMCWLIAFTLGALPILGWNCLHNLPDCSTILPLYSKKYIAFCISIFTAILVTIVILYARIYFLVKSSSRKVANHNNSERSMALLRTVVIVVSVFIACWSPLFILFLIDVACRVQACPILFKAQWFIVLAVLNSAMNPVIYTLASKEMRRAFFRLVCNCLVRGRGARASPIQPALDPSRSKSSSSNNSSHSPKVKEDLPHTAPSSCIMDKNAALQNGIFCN

[36] = Antimigratory activity against human T cells assessed as inhibition of S1P-induced T cell migration preincubated for 10 mins followed by addition of S1P measured after 120 mins by calcein-AM dye based fluorescence analysis; format: functional
[37] = Tmax in Sprague-Dawley rat at 1 mg/kg, po or 1 mg/kg, iv; format: ADME, organism-based; conditions: in vivo
[38] = Tmax in Beagle dog at 0.3 mg/kg, po or 1 mg/kg, iv; format: ADME, organism-based, Canis lupus familiaris; conditions: in vivo
[39] = Tmax in cynomolgus monkey at 1 mg/kg, po or 1 mg/kg, iv; format: ADME, organism-based, Macaca fascicularis; conditions: in vivo

| Compound | Activity (Rattus norvegicus [15]) | concentration at 4 h [16] | Activity (Rattus norvegicus [17]) | concentration at 24 h [18] | half-life [19] | Ratio [20] | Drug metabolism (Rattus norvegicus [21]) | Activity [22] | Activity [23] | EC50 [24] | Activity (Cerebellar cortex [25]) | Activity (Cerebellar cortex [26]) | ED50 (Rattus norvegicus [28]) | further results |
| --- | --- | --- | --- | --- | --- | --- | --- | --- | --- | --- | --- | --- | --- | --- |
| N[C@]1(CO)CC[C@H](c2ccc3c(c2)CC[C@@H](CCc2ccccc2)C3)C1 | 43% | 130 nM | 82% | 140 nM | > 75 h | 6 | 150 nM | – | – | – | – | – | – | Activity (Mus musculus [1]): 10%; Activity (Mus musculus [2]): 81%; Activity (Mus musculus [3]): 52%; Activity (Mus musculus [4]): 88%; concentration at 4 h [5]: 13 nM; concentration at 4 h [6]: 150 nM; Drug metabolism [7]: Bld; Drug metabolism [8]: 110 nM; concentration at 24 h [9]: 12 nM; concentration at 24 h [10]: 160 nM; Drug metabolism [11]: 34 nM; Drug metabolism [12]: 360 nM; Ratio [13]: 2.8; Ratio [14]: 2.3 |
| CCCCCCCCc1ccc(CC[C@](N)(CO)COP(=O)(O)O)cc1 [FTY720-P] | – | – | – | – | – | – | – | 38% | 62% | 1.6 nM | Active | 100% | – | – |
| COc1ccc(CC[C@@H]2CCc3cc([C@H]4CC[C@](N)(CO)C4)ccc3C2)cc1 | 21% | 190 nM | 81% | 40 nM | 11 h | 0.4 | 10 nM | – | – | – | – | – | 0.5 mg/kg | Activity [27]: 26 mg/dL |
| CCCCCCCCc1ccc(CCC(N)(CO)CO)cc1 [FINGOLIMOD] | – | – | – | – | – | – | – | – | – | – | – | – | 0.1 mg/kg | Activity [29]: 12.5 mg/dL; Ratio AUC [30]: 5.6; Ratio AUC [31]: 3.7; Ratio AUC [32]: 5.9; Ratio AUC [33]: 0.42; Activity (Mus musculus [34]): Active |
| COc1ccccc1CC[C@@H]1CCc2cc([C@H]3CC[C@](N)(COP(=O)(O)O)C3)ccc2C1 | – | – | – | – | – | – | – | 11% | 27% | 3.4 nM | Active | 100% | – | EC50 [35]: > 1000 nM; IC50 [36]: 0.6 nM; Tmax [37]: 6 h; Tmax [38]: 6 h; Tmax [39]: 6 h |
